Experimental data as given in patent US4868181A, “1,4-dihydropyridine derivatives with calcium agonist and alpha1 -antagonist activity” (E. I. Du Pont de Nemours and Company, priority 1987, dated 1989).

Columns and labels:
[1] = biological target: alpha1 -adrenoceptors; assay: [^3 H]-prazosin binding assay (affinity for alpha1-adrenoceptors); settings: rat brain membranes, 0.2 nM [^3 H]-prazosin, 60 minutes at 25°
Experimental: The [^3 H]-prazosin binding assay was carried out according to the method described by Timmermans, P. B. M. W. M., Schoop, A. M. C., and Van Zwieten, P. A.: Biochem Pharmacol., 31, 899-905, 1982 (1). The reaction mixture contained partially purified rat brain membranes (source of alpha1 -adrenoceptors), 0.2 nM [^3 H]-prazosin with or without potential displacer in Tris buffer. The mixture was incubated for 60 minutes at 25° and subsequently terminated by rapid filtration through glass fiber-filter. Receptor-bound [^3 H]-prazosin trapped in the filter was quantitated by scintillation counting. The inhibitory concentration (IC50) of potential displacer which gives 50% displacement of the total specifically bound [^3 H]-prazosin is presented as a measure of the affinity of such compound for the alpha1 -adrenoceptor.

[2] = biological target: T1, Ca^2 + channels (Rattus norvegicus, UniProt P22002); assay: [^3 H]-Nitrendipine binding assay (affinity for calcium channels); settings: rat cardiac microsomes, 0.5 nM [^3 H]-nitrendipine, 60 minutes at 25°
T1 construct: rat cardiac microsomes (source of Ca^2 + channels); from tissue; host or cells: rat cardiac microsomes
T1 sequence (P22002 whole entry, other chains not shown): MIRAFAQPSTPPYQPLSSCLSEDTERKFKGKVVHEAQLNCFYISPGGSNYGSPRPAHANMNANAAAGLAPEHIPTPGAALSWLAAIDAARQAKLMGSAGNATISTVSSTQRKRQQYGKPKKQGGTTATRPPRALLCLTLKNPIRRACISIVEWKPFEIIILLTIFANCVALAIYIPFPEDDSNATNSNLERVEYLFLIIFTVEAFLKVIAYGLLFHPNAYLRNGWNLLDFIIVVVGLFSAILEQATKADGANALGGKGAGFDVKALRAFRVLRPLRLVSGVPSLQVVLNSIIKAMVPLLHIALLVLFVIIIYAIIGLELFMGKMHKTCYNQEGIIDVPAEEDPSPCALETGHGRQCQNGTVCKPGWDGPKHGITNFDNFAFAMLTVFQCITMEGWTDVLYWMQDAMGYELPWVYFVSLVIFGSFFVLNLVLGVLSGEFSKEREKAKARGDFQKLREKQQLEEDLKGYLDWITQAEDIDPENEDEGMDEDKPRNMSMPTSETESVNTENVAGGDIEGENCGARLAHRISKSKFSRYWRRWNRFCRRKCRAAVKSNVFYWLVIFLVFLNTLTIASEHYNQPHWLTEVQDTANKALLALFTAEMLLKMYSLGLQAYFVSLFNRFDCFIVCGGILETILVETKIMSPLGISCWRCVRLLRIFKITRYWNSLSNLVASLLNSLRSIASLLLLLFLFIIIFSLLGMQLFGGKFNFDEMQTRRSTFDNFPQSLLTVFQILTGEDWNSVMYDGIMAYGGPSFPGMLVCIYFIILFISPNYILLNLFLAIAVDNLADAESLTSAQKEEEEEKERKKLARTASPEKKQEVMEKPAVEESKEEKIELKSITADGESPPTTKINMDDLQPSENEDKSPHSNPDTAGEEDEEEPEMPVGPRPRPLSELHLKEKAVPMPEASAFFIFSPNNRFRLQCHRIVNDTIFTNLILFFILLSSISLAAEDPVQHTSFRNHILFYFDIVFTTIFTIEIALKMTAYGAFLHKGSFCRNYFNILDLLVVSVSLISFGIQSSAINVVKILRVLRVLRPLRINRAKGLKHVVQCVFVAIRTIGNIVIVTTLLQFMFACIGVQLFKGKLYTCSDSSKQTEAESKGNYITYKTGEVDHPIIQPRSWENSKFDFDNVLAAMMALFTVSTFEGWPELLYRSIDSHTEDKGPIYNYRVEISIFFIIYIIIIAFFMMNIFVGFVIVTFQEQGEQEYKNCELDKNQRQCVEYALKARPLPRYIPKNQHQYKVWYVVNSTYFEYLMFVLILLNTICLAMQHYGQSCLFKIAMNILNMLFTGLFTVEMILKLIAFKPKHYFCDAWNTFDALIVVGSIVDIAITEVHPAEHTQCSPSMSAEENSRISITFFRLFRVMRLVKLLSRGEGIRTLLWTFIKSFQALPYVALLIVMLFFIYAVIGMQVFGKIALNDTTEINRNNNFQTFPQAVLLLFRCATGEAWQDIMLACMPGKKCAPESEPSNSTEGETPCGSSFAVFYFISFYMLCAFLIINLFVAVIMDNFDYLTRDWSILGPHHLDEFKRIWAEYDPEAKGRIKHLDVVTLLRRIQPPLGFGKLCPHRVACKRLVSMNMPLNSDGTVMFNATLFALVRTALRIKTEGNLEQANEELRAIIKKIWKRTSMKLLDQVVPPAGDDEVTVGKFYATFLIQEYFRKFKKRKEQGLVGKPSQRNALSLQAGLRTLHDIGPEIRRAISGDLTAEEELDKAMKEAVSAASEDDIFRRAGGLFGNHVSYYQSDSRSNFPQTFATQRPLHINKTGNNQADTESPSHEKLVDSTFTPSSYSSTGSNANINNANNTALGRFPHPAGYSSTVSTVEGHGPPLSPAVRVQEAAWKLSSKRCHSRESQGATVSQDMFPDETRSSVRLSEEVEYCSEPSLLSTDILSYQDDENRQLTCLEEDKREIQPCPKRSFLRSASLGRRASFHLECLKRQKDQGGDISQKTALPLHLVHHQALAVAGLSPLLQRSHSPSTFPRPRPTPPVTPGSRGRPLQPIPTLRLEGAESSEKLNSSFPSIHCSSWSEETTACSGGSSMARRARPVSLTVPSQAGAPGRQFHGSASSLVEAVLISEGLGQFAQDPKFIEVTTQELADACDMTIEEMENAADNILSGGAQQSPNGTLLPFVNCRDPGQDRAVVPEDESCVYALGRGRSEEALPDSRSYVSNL
T1 sequence (P54290 25-944 partner limits assumed, other chains not shown): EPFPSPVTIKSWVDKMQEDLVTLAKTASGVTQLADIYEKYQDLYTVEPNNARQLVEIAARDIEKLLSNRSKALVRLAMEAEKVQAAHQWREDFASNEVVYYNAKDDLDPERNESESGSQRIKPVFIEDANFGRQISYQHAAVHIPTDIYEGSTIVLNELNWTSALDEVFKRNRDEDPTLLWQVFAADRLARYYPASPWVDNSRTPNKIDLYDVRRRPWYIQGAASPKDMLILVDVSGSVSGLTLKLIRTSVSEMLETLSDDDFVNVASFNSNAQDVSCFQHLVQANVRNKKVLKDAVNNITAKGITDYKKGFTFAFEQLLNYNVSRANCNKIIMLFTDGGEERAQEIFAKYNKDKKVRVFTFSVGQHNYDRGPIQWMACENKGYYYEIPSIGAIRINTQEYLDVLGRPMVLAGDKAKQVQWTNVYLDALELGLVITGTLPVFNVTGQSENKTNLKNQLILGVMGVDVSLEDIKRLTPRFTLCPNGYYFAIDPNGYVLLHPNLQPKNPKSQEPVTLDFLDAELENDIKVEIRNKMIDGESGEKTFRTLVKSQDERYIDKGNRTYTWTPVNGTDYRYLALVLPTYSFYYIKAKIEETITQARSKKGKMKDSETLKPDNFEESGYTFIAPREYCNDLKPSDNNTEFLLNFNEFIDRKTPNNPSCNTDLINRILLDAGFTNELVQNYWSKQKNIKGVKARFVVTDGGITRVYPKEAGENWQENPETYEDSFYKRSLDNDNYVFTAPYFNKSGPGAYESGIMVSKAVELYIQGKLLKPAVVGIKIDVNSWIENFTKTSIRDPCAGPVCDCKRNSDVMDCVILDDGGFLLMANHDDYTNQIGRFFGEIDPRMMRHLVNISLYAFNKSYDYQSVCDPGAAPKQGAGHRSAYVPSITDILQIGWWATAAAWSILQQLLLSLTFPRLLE
T1 sequence (P54290 945-1091 partner limits assumed, other chains not shown): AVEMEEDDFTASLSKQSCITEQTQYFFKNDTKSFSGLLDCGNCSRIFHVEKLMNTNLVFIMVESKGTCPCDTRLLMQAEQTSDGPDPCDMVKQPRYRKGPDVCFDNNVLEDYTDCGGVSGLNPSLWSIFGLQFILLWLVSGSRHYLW
Experimental: [^3 H]-Nitrendipine binding assay was carried out according to the method described by G. T. Bolger, et al., Biochem. Biophys. Res. Comm., 104, 1604-1609, 1982 (1). The reaction mixture contained rat cardiac microsomes (source of Ca^2 + channels), 0.5 nM [^3 H]-nitrendipinewith or without potential displacer in Tris buffer. The mixture was incubated for 60 minutes at 25° and subsequently terminated by rapid filtration through a glass fiber-filter. Membrane-bound [^3 H]-nitrendipine trapped in the filter was quantitated by scintillation counting. The inhibitory concentration (IC50) of potential displacer which gives 50% displacement of the total specifically bound [^3 H]-nitrendipine is presented as a measure of the affinity of such compound for the Ca^2 + channel.

[3] = tested on: guinea pig left atria; assay: Positive inotropic effect in guinea pig left atria; settings: 37°; for EC50: left atria paced at 2Hz, cumulative addition to maximum 10^-4, read-out: EC50 (concentration that increases DT by 50% above the control DT); for Intrinsic Activity (ratio of the maximum effect of the test compound to that of Bay K 8644): relative to Bay K 8644, left atria paced at 2Hz
Experimental: Guinea pigs are killed by cervical dislocation. The left atria are removed and mounted at 1 gm resting tension in tissue baths containing oxygenated Krebs bicarbonate solution which is kept at 37°. The left atria are electrically paced at 2Hz with square wave pulses of 1 msec duration. The voltage is set at 1.5× threshold level.
After a one hour equilibration period, control values for developed tension (DT, gm) are recorded. Test compounds are then added to the baths, in a cumulative manner to a maximum concentration of 10^-4, to obtain a concentration-response curve. Treatment values of DT are obtained after the rug effect has reached a plateau and the exposure time for each concentration is 5-8 minutes. Percent change of the treatment value from the control value is calculated at each concentration of the test compound.

[4] = tested on: calcium ions influx; settings: cited from earlier work
[5] = tested on: coronary vasoconstriction; settings: cited from earlier work

| SMILES | IC50 [1] [nM] | IC50 [2] [nM] | EC50 [3] [nM] | Intrinsic Activity (ratio of the maximum effect of the test compound to that of Bay K 8644) [3] [%] | calcium ion influx and resulting effects [4] | potency as a calcium agonist relative to CGP28392 ([4]; compared with CGP28392) | toxicity [5] |
| --- | --- | --- | --- | --- | --- | --- | --- |
| COC(=O)C1=C(C)NC(C)=C([N+](=O)[O-])C1c1ccccc1OCCCCN1CCN(c2ccccn2)CC1 (centres unmarked) [Example 116] | 500 | 580 | > 100000 | 0 |  |  |  |
| COc1ccccc1N1CCN(CCOC(=O)C2=C(C)NC(C)=C([N+](=O)[O-])C2c2ccccc2Cl)CC1 (centres unmarked) [Example 5] | 490 | 73 | 560 | 100 |  |  |  |
| CCOC(=O)C1=C(C)NC2=C(C(=O)OC2)C1c1ccccc1OC(F)F (centres unmarked) [CGP28392] |  |  |  |  | promote an influx of calcium ions, therefore producing positive inotropic and vasoconstrictor effects |  |  |
| COC(=O)C1=C(C)NC(C)=C([N+](=O)[O-])C1c1ccccc1OCCCCN1CCN(c2ncccn2)CC1 (centres unmarked) [Example 60, 1,4-dihydro-2,6-dimethyl-'nitro-4-[2-(4-(4-(2-pyrimidinyl)-piperazinyl)butoxy)phenyl]methylester-36pyridinecarboxylic acid] | 4900 | 1000 | 1000 | 50 |  |  |  |
| CCOc1cccc(C2C(C(=O)OC)=C(C)NC(C)=C2[N+](=O)[O-])c1OCCCCN1CCN(c2ccccc2OC)CC1 (centres unmarked) [Example 109] | 610 | 790 | > 100000 | 0 |  |  |  |
| COC(=O)C1=C(C)NC(C)=C([N+](=O)[O-])C1c1cccc(OCCCN2CCN(C(c3ccc(F)cc3)c3ccc(F)cc3)CC2)c1 (centres unmarked) [Example 123] | 4500 | 1700 | > 100000 | 0 |  |  |  |
| COC(=O)C1=C(C)NC(C)=C([N+](=O)[O-])C1c1ccccc1C(F)(F)F (centres unmarked) [Bay K8644] |  |  | 150 | 100 | promote an influx of calcium ions, therefore producing positive inotropic and vasoconstrictor effects | more than 10 times | toxic because it causes coronary vasoconstriction |
| COc1cccc(OC)c1OCCNCCOC(=O)C1=C(C)NC(C)=C([N+](=O)[O-])C1c1ccccc1C(F)(F)F (centres unmarked) [Example 13] | > 10000 | 830 | 30000 | 50 |  |  |  |
| COc1ccccc1N1CCN(CCOC(=O)C2=C(C)NC(C)=C([N+](=O)[O-])C2c2ccccc2C(F)(F)F)CC1 (centres unmarked) [Example 2, 1,4-Dihydro-2,6-Dimethyl-5-nitro-4-[2-(trifluoromethyl)phenyl]-[2-[4-(2-methoxyphenyl)-1-piperazinyl]ethyl]ester-3-pyridinecarboxylic acid] | 800 | 29 | 44 | 145 |  |  |  |
| CCOc1cccc(C2C(C(=O)OC)=C(C)NC(C)=C2[N+](=O)[O-])c1OCCCN1CCN(c2ccccc2OC)CC1 (centres unmarked) [Example 108] | 1200 | 990 | > 100000 | 0 |  |  |  |
| COC(=O)C1=C(C)NC(C)=C([N+](=O)[O-])C1c1ccccc1OCCCCCN1CCN(c2ccccc2OC)CC1 (centres unmarked) [Example 59, 1,4-dihydro-2,6-dimethyl-4[2-(5-(4-(2-methoxyphenyl)-1-piperazinyl)pentoxyl)-phenyl]-5-nitro-methyl ester-3-pyridinecarboxylic acid] | 130 | 290 | 1000 | 35 |  |  |  |

Second part, led by results:

| IC50 [1] [nM] | IC50 [2] [nM] | EC50 [3] [nM] | SMILES | Intrinsic Activity (ratio of the maximum effect of the test compound to that of Bay K 8644) [3] [%] | calcium ion influx and resulting effects [4] | potency as a calcium agonist relative to CGP28392 ([4]; compared with CGP28392) | toxicity [5] |
| --- | --- | --- | --- | --- | --- | --- | --- |
| 300 | 300 | 6000 | COc1ccccc1N1CCN(CCCCOC(=O)C2=C(C)NC(C)=C([N+](=O)[O-])C2c2ccccc2C(F)(F)F)CC1 (centres unmarked) [Example 56] | 100 |  |  |  |
| 350 | 4600 | > 100000 | COC(=O)C1=C(C)NC(C)=C([N+](=O)[O-])C1c1cccc(OCCN2CCN(c3ccccc3OC)CC2)c1 (centres unmarked) [Example 69] | 10 |  |  |  |
| 440 | 1400 | > 100000 | COC(=O)C1=C(C)NC(C)=C([N+](=O)[O-])C1c1cccc(OCC=CCN2CCN(c3ccccc3OC)CC2)c1 (centres unmarked) [Example 125] | 0 |  |  |  |
| 71 | 4000 | 20000 | COC(=O)C1=C(C)NC(C)=C([N+](=O)[O-])C1c1cccc(OCCCN2CCN(c3ccccc3OC)CC2)c1 (centres unmarked) [Example 89] | 20 |  |  |  |
| 380 | 360 | 2000 | COC(=O)C1=C(C)NC(C)=C([N+](=O)[O-])C1c1ccccc1OCCCCCCN1CCN(c2ccccc2OC)CC1 (centres unmarked) [Example 129] | 15 |  |  |  |
| 330 | 380 | 3000 | COC(=O)C1=C(C)NC(C)=C([N+](=O)[O-])C1c1cccc(OCCCCCCN2CCN(c3ccccc3OC)CC2)c1 (centres unmarked) [Example 130] | 25 |  |  |  |
| 250 | 180 | > 100000 | COC(=O)C1=C(C)NC(C)=C([N+](=O)[O-])C1c1cc(Br)ccc1OCCCCN1CCN(c2ccccc2OC)CC1 (centres unmarked) [Example 142] | 0 |  |  |  |
| 240 | 1600 | > 100000 | COC(=O)C1=C(C)NC(C)=C([N+](=O)[O-])C1c1cccc(OC)c1OC/C=C\CN1CCN(c2ccccc2OC)CC1 (centres unmarked) [Example 114] | 0 |  |  |  |
| 180 | 1700 | > 100000 | CCOc1cccc(C2C(C(=O)OC)=C(C)NC(C)=C2[N+](=O)[O-])c1OCCCCCN1CCN(c2ccccc2OC)CC1 (centres unmarked) [Example 112] | 0 |  |  |  |
| 280 | 10000 | > 100000 | CCOC(=O)C1=C(C)NC(C)=C([N+](=O)[O-])C1c1cccc(OCCCN2CCN(c3ccccc3OC)CC2)c1 (centres unmarked) [Example 117] | 0 |  |  |  |
| 140 | 250 | > 100000 | COC(=O)C1=C(C)NC(C)=C([N+](=O)[O-])C1c1cccc(OC)c1OCCCN1CCN(c2ccccc2OC)CC1 (centres unmarked) [Example 106] | 0 |  |  |  |
| 180 | 220 | 3000 | COC(=O)C1=C(C)NC(C)=C([N+](=O)[O-])C1c1ccccc1OCCCCN1CCN(c2ccccc2OC)CC1 (centres unmarked) [Example 105] | 20 |  |  |  |
| 440 | 470 | 30000 | CCOC(=O)C1=C(C)NC(C)=C([N+](=O)[O-])C1c1ccccc1OCCCCN1CCN(c2ccccc2OC)CC1 (centres unmarked) [Example 120] | 50 |  |  |  |
| 130 | 850 | 1900 | COC(=O)C1=C(C)NC(C)=C([N+](=O)[O-])C1c1ccccc1OCCN1CCN(c2ccccc2OC)CC1 (centres unmarked) [Example 58] | 90 |  |  |  |
| 160 | 1000 | > 100000 | COC(=O)C1=C(C)NC(C)=C([N+](=O)[O-])C1c1cccc(OC)c1OCCCCN1CCN(c2ccccc2OC)CC1 (centres unmarked) [Example 110] | 0 |  |  |  |
| 190 | 850 | > 100000 | COC(=O)C1=C(C)NC(C)=C([N+](=O)[O-])C1c1cccc(OC)c1OCCCCCN1CCN(c2ccccc2OC)CC1 (centres unmarked) [Example 111] | 0 |  |  |  |
| 410 | 4100 | > 100000 | COC(=O)C1=C(C)NC(C)=C([N+](=O)[O-])C1c1cccc(OCCCCN2CCN(c3ccccc3OC)CC2)c1 (centres unmarked) [Example 107] | 0 |  |  |  |
